Test results from PMC5706701, “Development of a homogenous high-throughput assay for inositol hexakisphosphate kinase 1 activity” (PLoS ONE, 2017).
Structures can show the parent of a compound that is named as a salt. Where two headings read alike, the source gives them in different places.

Molecular target: T1, Human IP6K1 (Homo sapiens, UniProt Q92551)
T1 construct: GST (N, cleaved yes); made in house; host or cells: C43 E. coli, pGEX-6P-2
Experiment: IP6K1 high-throughput screen of the Sigma LOPAC (ADP-Glo Max, single point);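 further: final compound concentration 10µM in 5% DMSO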
Assay type: biochemical

[1] = LOPAC single-point screen, ADP-Glo Max raw signal per well
[2] = LOPAC single-point screen, Z-score from raw signal with plate average and StDev
[3] = LOPAC single-point screen, Z-score against plate average and StDev
[4] = LOPAC single-point screen, ADP-Glo Max luminescence raw signal per well
[5] = LOPAC single-point screen, Z-score relative to plate average and StDev
[6] = LOPAC single-point screen, Z-score from plate average and StDev
[7] = Sigma LOPAC single-point screen, ADP-Glo Max raw signal per well
[8] = Sigma LOPAC single-point screen, Z-score from plate average and StDev

T1 sequence (Q92551 whole entry): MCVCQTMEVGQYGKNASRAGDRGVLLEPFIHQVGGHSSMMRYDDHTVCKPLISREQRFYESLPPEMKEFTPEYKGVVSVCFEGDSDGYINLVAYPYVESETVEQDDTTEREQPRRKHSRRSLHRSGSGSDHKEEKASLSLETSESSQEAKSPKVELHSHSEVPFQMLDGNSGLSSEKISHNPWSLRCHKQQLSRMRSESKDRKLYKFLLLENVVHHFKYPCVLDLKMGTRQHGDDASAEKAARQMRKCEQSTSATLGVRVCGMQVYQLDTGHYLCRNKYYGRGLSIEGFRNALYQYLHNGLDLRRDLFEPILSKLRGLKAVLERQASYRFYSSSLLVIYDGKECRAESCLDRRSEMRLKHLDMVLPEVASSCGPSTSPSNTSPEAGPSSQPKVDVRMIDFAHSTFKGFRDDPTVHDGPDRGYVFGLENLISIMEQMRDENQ

`CN1C[C@H](O)[C@@H](O)[C@H](O)[C@H]1CO` [N-Methyl-1-deoxynojirimycin] was tested, and the “Raw Signal” value [1] was 53171 and the Z-score [2] was -0.2054.

For `Cl.NCCCCNS(=O)(=O)c1ccc2c(Cl)cccc2c1`, the “Raw Signal” value [1] was 59537 and the Z-score [3] was 0.286.

In the case of `CN1C2CCC1CC(OC(c1ccccc1)c1ccc(Cl)cc1)C2.Cl` (stereo not drawn), the “Raw Signal” value [4] is reported as 50933 and the Z-score [5] is reported as -0.8599.

In the case of `CC(C)=CCC/C(C)=C/CC/C(C)=C/CSc1ccccc1C(=O)O` [Farnesylthiosalicylic acid], the “Raw Signal” value [4] is reported as 51239 and the Z-score [5] is reported as -0.7977.

In the case of `CCCCCCCCCCCCCCCCCCNC(=O)OCC(COP(=O)([O-])OCC[n+]1ccsc1)OC` (stereo not drawn) [CV-3988], the “Raw Signal” value [4] is reported as 52703 and the Z-score [5] is reported as -0.6452.

With `Br.COc1ccc2c(c1)[C@]13CCCC[C@@H]1[C@H](C2)N(C)CC3.O` the “Raw Signal” value [1] was 54296 and the Z-score [2] was -0.1769.

With `CN1CCN(C2=Nc3ccccc3Oc3ccc(Cl)cc32)CC1` [Loxapine succinate] the “Raw Signal” value [1] was 54983 and the Z-score [3] was 0.09905.

`COc1ccc(CCN(C)CCCC(C#N)(c2cc(OC)c(OC)c(OC)c2)C(C)C)cc1OC.Cl` (racemic) [(±)-Methoxyverapamil hydrochloride] was tested, and the “Raw Signal” value [1] was 52492 and the Z-score [2] was -0.3195.

For `NC(CO)C(=O)NNCc1ccc(O)c(O)c1O` (stereo not drawn) [Benserazide hydrochloride], the “Raw Signal” value [4] was 50551 and the Z-score [5] was -1.297.

For `COc1cccc2c1[C@@H]1CN(CCCCn3c(=O)[nH]c4c(sc5ncc(-c6ccccc6)nc54)c3=O)C[C@@H]1CO2` [Fiduxosin hydrochloride], the “Raw Signal” value [1] was 56814 and the Z-score [3] was 0.3345.

`CC(N)c1cccc(Cl)c1Cl.Cl` (racemic) was tested, and the “Raw Signal” value [1] was 54173 and the Z-score [2] was -0.2019.

`N[C@@H]1C[C@H]1c1ccccc1` [Tranylcypromine hydrochloride] was tested, and the “Raw Signal” value [1] was 55566 and the Z-score [3] was -0.08894.

In the case of `O=C(c1ccc(OCCN2CCCCC2)cc1)c1c(-c2ccc(O)cc2)sc2cc(O)ccc12` [Raloxifene hydrochloride], the “Raw Signal” value [1] is reported as 54124 and the Z-score [2] is reported as -0.3691.

With `c1ccc(-c2ccccn2)nc1` [2,2 -Bipyridyl] the “Raw Signal” value [1] was 56711 and the Z-score [3] was 0.3136.

For `C[C@](N)(Cc1ccc(O)cc1)C(=O)O` [L-alpha-Methyl-p-tyrosine], the “Raw Signal” value [1] was 53929 and the Z-score [3] was -0.07805.

For `C=CCN1CC[C@]2(C)c3cc(O)ccc3C[C@H]1[C@H]2C.Cl` [(+)-N-Allylnormetazocine hydrochloride], the “Raw Signal” value [4] was 54138 and the Z-score [5] was -0.6649.

For `COC(=O)C(N)Cc1ccc(Cl)cc1.Cl` (racemic), the “Raw Signal” value [4] was 67025 and the Z-score [6] was 1.605.

With `COc1ccc2c(c1)c(CC(=O)O)c(C)n2C(=O)c1ccccc1` the “Raw Signal” value [4] was 53454 and the Z-score [5] was -0.7854.

With `CC(C)NCC(O)c1ccc(NS(C)(=O)=O)cc1.Cl` (racemic) [(±)-Sotalol hydrochloride] the “Raw Signal” value [1] was 55236 and the Z-score [2] was -0.1531.

For `C=CCN1CC[C@]23c4c5ccc(O)c4O[C@H]2/C(=N/NC(=O)c2ccccc2)CC[C@@]3(O)[C@H]1C5` [Naloxone benzoylhydrazone], the “Raw Signal” value [7] was 57821 and the Z-score [8] was 0.5759.

`Oc1ccc2c3c1O[C@H]1c4oc5ccccc5c4C[C@@]4(O)[C@@H](C2)N(CC2CC2)CC[C@]314` [Naltriben methanesulfonate] was tested, and the “Raw Signal” value [1] was 55337 and the Z-score [3] was 0.1585.

With `O=C1NC(=O)C(c2ccccc2)(c2ccccc2)N1` [Phenytoin sodium] the “Raw Signal” value [4] was 66782 and the Z-score [6] was 2.359.

For `CC(=O)C(C)=O` [2,3-Butanedione], the “Raw Signal” value [1] was 53441 and the Z-score [2] was -0.3505.

`Cl.c1ccc([C@H]2CN3CCSC3=N2)cc1` [(-)-Tetramisole hydrochloride] was tested, and the “Raw Signal” value was 55029 and the Z-score was 0.1068.

For `CCN(CC)c1ncnc2c1ncn2[C@@H]1O[C@H](COP(=O)([O-])OP(=O)([O-])C(Br)(Br)P(=O)([O-])O)[C@@H](O)[C@H]1O.[Na+].[Na+].[Na+]` [ARL 67156 trisodium salt], the “Raw Signal” value [4] was 54051 and the Z-score [5] was -0.6802.

`CC(C)(Sc1ccc(CCN(CCCCC2CCCCC2)C(=O)NC2CCCCC2)cc1)C(=O)O` [GW7647] was tested, and the “Raw Signal” value [4] was 52814 and the Z-score [5] was -0.4779.

`COC[C@H]1OC(=O)c2coc3c2[C@@]1(C)C1=C(C3=O)[C@@H]2CCC(=O)[C@@]2(C)C[C@H]1OC(C)=O` [Wortmannin from Penicillium funiculosum] was tested, and the “Raw Signal” value [4] was 53582 and the Z-score [5] was -0.4744.

`N/C(=N\C(=O)c1nc(Cl)c(N)nc1N)NCc1ccc(Cl)c(Cl)c1` [3 ,4 -Dichlorobenzamil] was tested, and the “Raw Signal” value [1] was 56444 and the Z-score [3] was 0.2593.

For `CC1(C)CCC2=C(O1)c1ccccc1C(=O)C2=O` [beta-Lapachone], the “Raw Signal” value [1] was 54181 and the Z-score [3] was -0.03571.

For `N[C@@H]1CON=C1O` [D-Cycloserine], the “Raw Signal” value [1] was 55913 and the Z-score [2] was -0.3523.

In the case of `O=C(O)CCC(C(=O)O)N1C(=O)c2ccccc2C1=O` [L-Glutamic acid, N-phthaloyl-], the “Raw Signal” value [7] is reported as 59775 and the Z-score [8] is reported as 0.9042.

In the case of `Cc1oncc1C(=O)Nc1ccc(C(F)(F)F)cc1` [Leflunomide], the “Raw Signal” value [4] is reported as 65933 and the Z-score [6] is reported as 1.939.

For `Nc1nccc2c1ncn2[C@@H]1O[C@H](CO)[C@@H](O)[C@H]1O` [3-deazaadenosine], the “Raw Signal” value [4] was 51727 and the Z-score [5] was -0.6986.

With `CC(Cc1ccc(O)c(O)c1)C(C)Cc1ccc(O)c(O)c1` (stereo not drawn) the “Raw Signal” value [1] was 56278 and the Z-score [3] was 0.3166.

`CNC(=O)[C@H]1O[C@@H](n2cnc3c(NCc4ccc(N)cc4)ncnc32)[C@H](O)[C@@H]1O` [AB-MECA] was tested, and the “Raw Signal” value [4] was 53262 and the Z-score [5] was -0.8192.

With `CC[C@H](NC(=O)c1c(C)c(-c2ccccc2)nc2ccccc12)c1ccccc1` [SB 222200] the “Raw Signal” value [1] was 57369 and the Z-score [2] was -0.09583.

For R(-)-SCH-12679 maleate, the “Raw Signal” value [4] was 53479 and the Z-score [5] was -0.4944.

For `Cl.O=c1[nH]oc2c1CCNC2` [THIP hydrochloride], the “Raw Signal” value [7] was 60339 and the Z-score [8] was 0.8384.

`NC(=O)CI` [Iodoacetamide] was tested, and the “Raw Signal” value [4] was 64727 and the Z-score [6] was 1.942.

With `N#C/C(=C\c1ccc(O)c(O)c1)C(=O)NCCCNC(=O)/C(C#N)=C/c1ccc(O)c(O)c1` [Tyrphostin AG 537] the “Raw Signal” value [4] was 33325 and the Z-score [5] was -4.41.

With `Cl.FC(F)(F)c1cc(CO[C@H]2CCCN[C@H]2c2ccccc2)cc(C(F)(F)F)c1` [L-733,060 hydrochloride] the “Raw Signal” value [1] was 52038 and the Z-score [2] was -0.3958.

With `Cl.N[C@@H](CCC(=O)O)C(=O)O` [L-Glutamic acid hydrochloride] the “Raw Signal” value [1] was 55889 and the Z-score [3] was 0.1466.

`COc1ccc(CCNC[C@H](O)c2ccc(O)cc2)cc1OC` [R(-)-Denopamine] was tested, and the “Raw Signal” value [7] was 58220 and the Z-score [8] was 0.4267.

In the case of `O=C1NC(=O)C(c2ccccc2)(c2ccccc2)N1` [5,5-Diphenylhydantoin], the “Raw Signal” value [1] is reported as 54091 and the Z-score [2] is reported as -0.2185.

In the case of `O=C(O)/C=C/C(=O)O.O=C(O)/C=C/C(=O)O.O=C(O)/C=C/C(=O)O.O=C1CCCN1CC#CCN1CCCC1.O=C1CCCN1CC#CCN1CCCC1` [Oxotremorine sesquifumarate salt], the “Raw Signal” value [1] is reported as 55438 and the Z-score [3] is reported as 0.1755.

`CCCCCCCCCCCCCCCCCC(=O)OC(CC(=O)O)C[N+](C)(C)C.[Cl-]` (racemic) [DL-Stearoylcarnitine chloride] was tested, and the “Raw Signal” value [1] was 55265 and the Z-score [2] was -0.1474.

For `N[C@H](C(=O)O)[C@H]1C[C@@H]1C(=O)O`, the “Raw Signal” value [1] was 55555 and the Z-score [3] was 0.07879.

For `CCCN(CCC)[C@@H]1CCc2c(F)ccc(O)c2C1.Cl` [R(+)-UH-301 hydrochloride], the “Raw Signal” value [1] was 54775 and the Z-score [2] was -0.2426.

`Br.CCCN(CCC)C1CCc2ccc(O)cc2C1` (racemic) [(±)-7-Hydroxy-DPAT hydrobromide] was tested, and the “Raw Signal” value [1] was 55055 and the Z-score [3] was -0.02275.

In the case of `CCC(C)N(C)C(=O)c1cc2ccccc2c(-c2ccccc2Cl)n1` (stereo not drawn) [PK 11195], the “Raw Signal” value [4] is reported as 54307 and the Z-score [5] is reported as -0.6351.

For `CCNC(=O)[C@H]1O[C@@H](n2cnc3c(N)nc(NCCc4ccc(CCC(=O)O)cc4)nc32)[C@H](O)[C@@H]1O.Cl` [CGS-21680 hydrochloride], the “Raw Signal” value [4] was 62301 and the Z-score [6] was 1.449.

In the case of `O=C(O)/C=C/c1ccc(O)c(O)c1` [Caffeic Acid], the “Raw Signal” value [1] is reported as 56687 and the Z-score [2] is reported as -0.216.

For `CCN(CC)C(=S)SSC(=S)N(CC)CC` [Tetraethylthiuram disulfide], the “Raw Signal” value [1] was 54661 and the Z-score [2] was -0.2648.

With `COc1ccc2[nH]cc(CCN(C)C)c2c1.O=C(O)C(=O)O` [5-Methoxy DMT oxalate] the “Raw Signal” value [7] was 59658 and the Z-score [8] was 0.8846.

In the case of `CCCN1CCC[C@H](c2cccc(O)c2)C1.Cl` [R(+)-3PPP hydrochloride], the “Raw Signal” value [4] is reported as 50646 and the Z-score [5] is reported as -1.045.

In the case of `Cc1cn[nH]c1.Cl` [4-Methylpyrazole hydrochloride], the “Raw Signal” value [4] is reported as 63526 and the Z-score [6] is reported as 1.5345.

`COC(=O)C1=CCCN(C)C1` [Arecoline hydrobromide] was tested, and the “Raw Signal” value [1] was 57110 and the Z-score [2] was -0.1414.

With `NC(=O)CN1CC(O)CC1=O` (stereo not drawn) [Oxiracetam] the “Raw Signal” value [1] was 55053 and the Z-score [3] was 0.1108.

`CC(C)(CO)Cc1cc(C(C)(C)C)c(O)c(C(C)(C)C)c1` [CGP-7930] was tested, and the “Raw Signal” value [7] was 64858 and the Z-score [8] was 1.223.

With `CNCCCN1c2ccccc2CCc2ccccc21` [Desipramine hydrochloride] the “Raw Signal” value [4] was 49945 and the Z-score [5] was -1.061.

In the case of `CC1CN(S(=O)(=O)c2cccc3cnccc23)CCN1.Cl.Cl` (stereo not drawn), the “Raw Signal” value [1] is reported as 53944 and the Z-score [3] is reported as -0.07553.

`O=C(Nc1ccccc1)c1cc([N+](=O)[O-])ccc1Cl` [GW9662] was tested, and the “Raw Signal” value [1] was 52726 and the Z-score [2] was -0.2802.

`O=C(O)C1=CC(=C(c2ccc(O)c(C(=O)O)c2)c2ccc(O)c(C(=O)O)c2)C=CC1=O` [Aurintricarboxylic acid] was tested, and the “Raw Signal” value [4] was 8090 and the Z-score [5] was -8.775.
